Measurements as given in ChEMBL document CHEMBL5625269, “Design, synthesis, and biological evaluation of novel benzo[6,7]indolo[3,4-c]isoquinolines as anticancer agents with topoisomerase I inhibition” (2024).
Active and inactive are the calls of the source. The rule behind the calls is not given here.

Experiments:
ACHN = experiment: Growth inhibition of human ACHN cells assessed as reduction in cell viability; assay type: functional
U-251 = experiment: Growth inhibition of human U-251 cells assessed as reduction in cell viability; assay type: functional
HCT-116 = experiment: Growth inhibition of human HCT-116 cells assessed as reduction in cell viability; assay type: functional
LOX IMVI = experiment: Growth inhibition of human LOX IMVI cells assessed as reduction in cell viability; assay type: functional
[1] = target: T1, DNA topoisomerase 1 (Homo sapiens) (UniProt P11387); experiment: Inhibition of human DNA topoisomerase 1 assessed as reduction in pBR322 DNA relaxation at 20 to 100 uM by agarose gel electrophoresis method; conditions: dose 20-100 µM
T1 sequence (whole entry): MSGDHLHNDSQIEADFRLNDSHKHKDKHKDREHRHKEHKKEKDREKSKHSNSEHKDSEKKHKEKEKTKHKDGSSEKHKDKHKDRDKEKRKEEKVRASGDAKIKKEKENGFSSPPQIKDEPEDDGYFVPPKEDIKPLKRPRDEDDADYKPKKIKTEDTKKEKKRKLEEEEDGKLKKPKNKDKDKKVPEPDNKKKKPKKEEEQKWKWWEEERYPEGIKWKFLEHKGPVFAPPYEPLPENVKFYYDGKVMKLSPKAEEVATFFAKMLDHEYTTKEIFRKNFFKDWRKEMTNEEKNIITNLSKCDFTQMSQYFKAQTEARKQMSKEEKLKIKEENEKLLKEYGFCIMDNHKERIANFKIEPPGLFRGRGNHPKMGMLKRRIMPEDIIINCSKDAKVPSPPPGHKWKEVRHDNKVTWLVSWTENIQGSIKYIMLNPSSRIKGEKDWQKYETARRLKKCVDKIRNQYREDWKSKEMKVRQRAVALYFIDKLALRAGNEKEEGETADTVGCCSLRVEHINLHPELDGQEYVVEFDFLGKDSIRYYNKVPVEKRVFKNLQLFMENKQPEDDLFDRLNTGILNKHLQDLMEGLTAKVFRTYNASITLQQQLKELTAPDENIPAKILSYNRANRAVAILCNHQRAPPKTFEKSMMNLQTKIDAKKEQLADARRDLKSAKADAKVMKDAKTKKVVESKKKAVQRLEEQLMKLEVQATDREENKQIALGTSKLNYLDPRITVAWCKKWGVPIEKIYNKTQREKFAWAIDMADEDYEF

SK-OV-3 = experiment: Growth inhibition of human SK-OV-3 cells assessed as reduction in cell viability; assay type: functional
MCF7 = experiment: Growth inhibition of human MCF7 cells assessed as reduction in cell viability; assay type: functional
[2] = target: T1, DNA topoisomerase 1 (Homo sapiens); experiment: Inhibition of human DNA topoisomerase 1 assessed as reduction in pBR322 DNA relaxation at 20 to 100 uM in presence of ethidium bromide by agarose gel electrophoresis method; conditions: dose 20-100 µM
DU-145 = experiment: Growth inhibition of human DU-145 cells assessed as reduction in cell viability; assay type: functional
A549 = experiment: Growth inhibition of human A549 cells assessed as reduction in cell viability; assay type: functional
MKN-28 = experiment: Growth inhibition of human MKN-28 cells assessed as reduction in cell viability; assay type: functional

| Structure (SMILES) | GI50 (ACHN) | GI50 (U-251) | GI50 (HCT-116) | GI50 (LOX IMVI) | inhibition [1] | GI50 (SK-OV-3) | GI50 (MCF7) | inhibition [2] | GI50 (DU-145) | GI50 (A549) | GI50 (MKN-28) |
| --- | --- | --- | --- | --- | --- | --- | --- | --- | --- | --- | --- |
| COc1cc2c(cnc3c4ccc5cc(O)ccc5c4n(CCN(C)C)c23)cc1O | 20 nM | < 10 nM | 65 nM | < 10 nM | Active | 380 nM | 13 nM | Active | < 10 nM | 380 nM | 912 nM |
| COc1cc2c(cnc3c4ccc5cc(O)ccc5c4n(CCCN4CCOCC4)c23)cc1O | < 10 nM | < 10 nM | < 10 nM | < 10 nM | Active | 18 nM | < 10 nM | Active | < 10 nM | 49 nM | 19 nM |
| COc1cc2c(cc1O)c[n+]([O-])c1c3ccc4cc(O)ccc4c3n(C)c21 | 37 nM | 145 nM | 209 nM | 50 nM |  | 1440 nM | 66 nM | Active | 62 nM | 3090 nM | 3550 nM |
| COc1cc2c(cnc3c4ccc5cc(O)ccc5c4n(C)c23)cc1O | 257 nM | 123 nM | 200 nM | 178 nM |  | 759 nM | 437 nM |  | 282 nM | 631 nM | 437 nM |
| COc1cc2c(cnc3c4ccc5cc(O)ccc5c4n(CCCn4ccnc4)c23)cc1O | 331 nM | 38 nM | 324 nM | 44 nM |  | 9550 nM | 40 nM | inactive | 141 nM | 15800 nM | 1950 nM |
| COc1cc2c(ccc3c4c(=O)oc5cc(O)c(OC)cc5c4n(C)c23)cc1O | < 1 nM | 1.3 nM | 8.8 nM | 2.6 nM |  | 9.4 nM | 9.6 nM |  | 2.5 nM | 1.8 nM | 33 nM |
| COc1cc2c(cnc3c4ccc5cc(O)ccc5c4n(CCCCl)c23)cc1O | 32 nM | 26 nM | 115 nM | 25 nM |  | 537 nM | 105 nM |  | 32 nM | 447 nM | 316 nM |
| COc1cc2c(cnc3c4ccc5cc(O)ccc5c4n(CCCN4CCC(N5CCCCC5)CC4)c23)cc1O | 1100 nM | 708 nM | 309 nM | 363 nM | Active | 1820 nM | 263 nM |  | 759 nM | 1550 nM | 562 nM |
